Columns and labels:
Assay type in all cases: in vivo
[1] = tested on: pigweed (Amaranthus retroflexus); assay: Test B pre-/postemergence plant response; conditions: for Pigweed plant response rating (0 to 100 scale): 62 g ai/ha, 0 is no effect, 13 to 15 days
Summary of the method: (§1)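 Ratings reflect visual comparison with untreated controls 13 to 15 days after application, from 0 (no effect) to 100 (complete control). Application was preemergence to seeded loam/sand soil or postemergence to 1- to 4-leaf plants, with compound in a non-phytotoxic, surfactant-containing solvent.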

[2] = tested on: wild oat (Avena fatua); assay: Test B pre-/postemergence plant response; conditions: for Oat, Wild plant response rating (0 to 100 scale): 62 g ai/ha, 0 is no effect, 13 to 15 days
Summary of the method: as §1

[3] = tested on: canarygrass (Phalaris minor); assay: Test B postemergence plant response; conditions: for Canarygrass plant response rating (0 to 100 scale): 62 g ai/ha, 0 is no effect, 13 to 15 days
Summary of the method: (§2)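 Plants grown in peat/vermiculite medium were sprayed postemergence at 2–18 cm height (1- to 4-leaf stage). After 13–15 days in the greenhouse, response was rated visually against untreated controls on a 0–100 scale (0 no effect, 100 complete control).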

[4] = tested on: chickweed (Stellaria media); assay: Test B postemergence plant response; conditions: for Chickweed plant response rating (0 to 100 scale): 62 g ai/ha, 0 is no effect, 13 to 15 days
Summary of the method: as §2

[5] = tested on: windgrass (Apera spica-venti); assay: Test B postemergence plant response; conditions: for Windgrass plant response rating (0 to 100 scale): 62 g ai/ha, 0 is no effect, 13 to 15 days
Summary of the method: as §2

[6] = tested on: winter barley (Hordeum vulgare); assay: Test B postemergence plant response; conditions: for Barley plant response rating (0 to 100 scale): 62 g ai/ha, 0 is no effect, 13 to 15 days
Summary of the method: as §2

[7] = tested on: barnyardgrass (Echinochloa crus-galli); assay: Test B flooded paddy test; conditions: for Plant response rating, Flood, Barnyardgrass: 250 g ai/ha, flooded paddy test, visual rating on 0 to 100 scale (0 no effect, 100 complete control) after 13 to 15 days; for Plant response rating, Barnyardgrass: Flood (flooded paddy test), 13 to 15 days; for Barnyardgrass plant response rating: Flood, 31 g ai/ha, scale 0 to 100 (0 no effect, 100 complete control)
Summary of the method: (§3)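 Visual scores run from 0 (no effect) to 100 (complete control), assigned by comparison with controls 13 to 15 days after treatment. Test compounds went straight into water standing 3 cm above the soil, around plants at the 2-leaf stage kept in a greenhouse.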

[8] = tested on: ducksalad (Heteranthera limosa); assay: Test B flooded paddy test; conditions: for Plant response rating, Flood, Ducksalad: 250 g ai/ha, flooded paddy test, visual rating on 0 to 100 scale (0 no effect, 100 complete control) after 13 to 15 days; for Plant response rating, Ducksalad: Flood (flooded paddy test), 13 to 15 days; for Ducksalad plant response rating: Flood, 31 g ai/ha, scale 0 to 100 (0 no effect, 100 complete control)
Summary of the method: as §3

[9] = tested on: rice (Oryza sativa); assay: Test B flooded paddy test; conditions: for Plant response rating, Flood, Rice: 250 g ai/ha, flooded paddy test, visual rating on 0 to 100 scale (0 no effect, 100 complete control) after 13 to 15 days; for Plant response rating, Rice: Flood (flooded paddy test), 13 to 15 days; for Rice plant response rating: Flood, 31 g ai/ha, scale 0 to 100 (0 no effect, 100 complete control)
Summary of the method: as §3

[10] = tested on: umbrella sedge (Cyperus difformis); assay: Test B flooded paddy test; conditions: for Plant response rating, Flood, Sedge, Umbrella: 250 g ai/ha, flooded paddy test, visual rating on 0 to 100 scale (0 no effect, 100 complete control) after 13 to 15 days; for Plant response rating, Sedge, Umbrella: Flood (flooded paddy test), 13 to 15 days; for Sedge, Umbrella plant response rating: Flood, 31 g ai/ha, scale 0 to 100 (0 no effect, 100 complete control)
Summary of the method: as §3

[11] = 31 g ai/ha, postemergence, scale 0 to 100, 0 is no effect, 100 is complete control
[12] = postemergence, 100 is complete control
[13] = Postemergence, 125 g ai/ha, visual rating after 13 to 15 days, scale 0 (no effect) to 100 (complete control)
[14] = Postemergence, 250 g ai/ha, scale 0 to 100 (0 no effect, 100 complete control)
[15] = 62 g ai/ha, scale of 0 to 100 where 0 is no effect and 100 is complete control
[16] = 125 g ai/ha, scale 0 to 100, 0 is no effect, 100 is complete control

SMILES	Plant response rating, Pigweed [1, 11]	Pigweed plant response rating (0 to 100 scale) [1, 12]	Plant response rating, Pigweed [1, 14]	Plant response rating, Oat, Wild [2, 11]	Oat, Wild plant response rating (0 to 100 scale) [2, 12]	Plant response rating, Oat, Wild [2, 14]	Plant response rating, Canarygrass [3, 11]	Canarygrass plant response rating (0 to 100 scale) [3, 12]	Plant response rating, Canarygrass [3, 13]	Plant response rating, Canarygrass [3, 14]	Plant response rating, Chickweed [4, 11]	Chickweed plant response rating (0 to 100 scale) [4, 12]	Plant response rating, Chickweed [4, 13]	Plant response rating, Chickweed [4, 14]	Plant response rating, Windgrass [5, 11]	Windgrass plant response rating (0 to 100 scale) [5, 12]	Plant response rating, Windgrass [5, 14]	Plant response rating, Barley [6, 11]	Barley plant response rating (0 to 100 scale) [6, 12]	Plant response rating, Barley [6, 13]	also measured
O=C1CCCC(O)=C1C(=O)c1cnc(-c2ccc(Br)cc2)n(-c2ccccc2)c1=O [Compound 70]	85	98	100	55	70	95	50	80	85	98	80	90	98	100	80	85	100	10	30	90	Plant response rating, Pigweed [1, 13]: 98; Plant response rating, Oat, Wild [2, 13]: 90; Plant response rating, Windgrass [5, 13]: 90; Plant response rating, Barley [6, 14]: 90; Plant response rating, Flood, Barnyardgrass [7]: 20; Plant response rating, Barnyardgrass [7, 15]: 0; Plant response rating, Barnyardgrass [7, 16]: 0; Barnyardgrass plant response rating [7]: 0; Plant response rating, Flood, Ducksalad [8]: 0; Plant response rating, Ducksalad [8, 15]: 0; Plant response rating, Ducksalad [8, 16]: 0; Ducksalad plant response rating [8]: 0; Plant response rating, Flood, Rice [9]: 20; Plant response rating, Rice [9, 15]: 0; Plant response rating, Rice [9, 16]: 0; Rice plant response rating [9]: 0; Plant response rating, Flood, Sedge, Umbrella [10]: 20; Plant response rating, Sedge, Umbrella [10, 15]: 0; Plant response rating, Sedge, Umbrella [10, 16]: 20; Sedge, Umbrella plant response rating [10]: 0
CCCc1ncc(C(=O)C2=C(O)CCCC2=O)c(=O)n1-c1cccc(C)c1 [Compound 79]	100	100	100	40	45	75	15	30	35	50	80	95	95	98	50	65	90	5	30	35	Plant response rating, Pigweed [1, 13]: 100; Plant response rating, Oat, Wild [2, 13]: 60; Plant response rating, Windgrass [5, 13]: 65; Plant response rating, Barley [6, 14]: 55; Plant response rating, Flood, Barnyardgrass [7]: 30; Plant response rating, Barnyardgrass [7, 15]: 0; Plant response rating, Barnyardgrass [7, 16]: 20; Barnyardgrass plant response rating [7]: 0; Plant response rating, Flood, Ducksalad [8]: 40; Plant response rating, Ducksalad [8, 15]: 0; Plant response rating, Ducksalad [8, 16]: 15; Ducksalad plant response rating [8]: 0; Plant response rating, Flood, Rice [9]: 20; Plant response rating, Rice [9, 15]: 0; Plant response rating, Rice [9, 16]: 15; Rice plant response rating [9]: 0; Plant response rating, Flood, Sedge, Umbrella [10]: 30; Plant response rating, Sedge, Umbrella [10, 15]: 0; Plant response rating, Sedge, Umbrella [10, 16]: 0; Sedge, Umbrella plant response rating [10]: 0
O=C1CCCC(O)=C1C(=O)c1cnc(C2CC2)n(-c2ccccc2)c1=O [Compound 87]	98	98	100	50	60	90	0	30	35	35	100	100	100	100	55	60	95	0	0	0	Plant response rating, Barley [6, 14]: 5; Plant response rating, Flood, Barnyardgrass [7]: 60; Plant response rating, Barnyardgrass [7, 15]: 45; Plant response rating, Barnyardgrass [7, 16]: 55; Barnyardgrass plant response rating [7]: 20; Plant response rating, Flood, Ducksalad [8]: 20; Plant response rating, Ducksalad [8, 15]: 30; Plant response rating, Ducksalad [8, 16]: 20; Ducksalad plant response rating [8]: 20; Plant response rating, Flood, Rice [9]: 70; Plant response rating, Rice [9, 15]: 20; Plant response rating, Rice [9, 16]: 60; Rice plant response rating [9]: 0; Plant response rating, Flood, Sedge, Umbrella [10]: 70; Plant response rating, Sedge, Umbrella [10, 15]: 20; Plant response rating, Sedge, Umbrella [10, 16]: 50; Sedge, Umbrella plant response rating [10]: 0
O=C1CCCC(O)=C1C(=O)c1cnc(-c2ccccc2)n(C2CC2)c1=O [Compound 90]	85	98	100	0	5	20	5	10	30	30	70	80	85	90	0	5	50	0	5	10	Plant response rating, Barley [6, 14]: 20; Plant response rating, Flood, Barnyardgrass [7]: 30; Plant response rating, Barnyardgrass [7, 15]: 0; Plant response rating, Barnyardgrass [7, 16]: 15; Barnyardgrass plant response rating [7]: 0; Plant response rating, Flood, Ducksalad [8]: 90; Plant response rating, Ducksalad [8, 15]: 65; Plant response rating, Ducksalad [8, 16]: 80; Ducksalad plant response rating [8]: 50; Plant response rating, Flood, Rice [9]: 0; Plant response rating, Rice [9, 15]: 0; Plant response rating, Rice [9, 16]: 0; Rice plant response rating [9]: 0; Plant response rating, Flood, Sedge, Umbrella [10]: 80; Plant response rating, Sedge, Umbrella [10, 15]: 60; Plant response rating, Sedge, Umbrella [10, 16]: 75; Sedge, Umbrella plant response rating [10]: 50
COCCOCCn1c(-c2ccccc2)ncc(C(=O)C2=C(O)CCCC2=O)c1=O [Compound 91]	100	100	100	30	30	50	25	55	65	75	85	95	98	100	10	40	65	0	30	30	Plant response rating, Barley [6, 14]: 40; Plant response rating, Flood, Barnyardgrass [7]: 65; Plant response rating, Barnyardgrass [7, 15]: 20; Plant response rating, Barnyardgrass [7, 16]: 60; Barnyardgrass plant response rating [7]: 15; Plant response rating, Flood, Ducksalad [8]: 100; Plant response rating, Ducksalad [8, 15]: 90; Plant response rating, Ducksalad [8, 16]: 90; Ducksalad plant response rating [8]: 65; Plant response rating, Flood, Rice [9]: 15; Plant response rating, Rice [9, 15]: 15; Plant response rating, Rice [9, 16]: 15; Rice plant response rating [9]: 0; Plant response rating, Flood, Sedge, Umbrella [10]: 100; Plant response rating, Sedge, Umbrella [10, 15]: 95; Plant response rating, Sedge, Umbrella [10, 16]: 100; Sedge, Umbrella plant response rating [10]: 75

Source: patent publication US8952024B2, “Herbicidal pyrimidone derivatives” (E I du Pont de Nemours and Company, priority 2009, dated 2015)
